Assay results published in PubChem BioAssay (NCI).
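Step 1: Grow cells in 96-well plates. Step 2: Expose to compound for 48 hours at 5 concentrations. Step 3: Interpolate endpoints linearly; if unreached, use highest concentration. TGI: concentration producing complete growth inhibition.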

How the values were obtained:
Test in all cases: DTP human tumour cell line panel, 48 h
[1] = test system: CCRF-CEM leukemia
[2] = test system: COLO 205 colon
[3] = test system: MCF7 breast
[4] = test system: NCI/ADR-RES ovarian
[5] = test system: NCI-H226 lung
[6] = test system: HT29 colon
[7] = test system: OVCAR-5 ovarian
[8] = test system: MDA-MB-435
[9] = test system: HCT-15 colon
[10] = test system: TK-10 renal
[11] = test system: RXF 393 renal
[12] = test system: DU-145 prostate
[13] = test system: SK-MEL-28 melanoma
[14] = test system: UACC-257 melanoma
[15] = test system: PC-3 prostate
[16] = test system: SNB-75 CNS
[17] = test system: ACHN renal
[18] = test system: MALME-3M melanoma
[19] = test system: K-562 leukemia
[20] = test system: MDA-MB-231 breast
[21] = test system: A498 renal
[22] = test system: SF-539 CNS
[23] = test system: OVCAR-8 ovarian
[24] = test system: OVCAR-4 ovarian
[25] = test system: KM12 colon
[26] = test system: SK-OV-3 ovarian
[27] = test system: UACC-62 melanoma
[28] = test system: LOX IMVI melanoma
[29] = test system: SR leukemia
[30] = test system: HS 578T breast
[31] = test system: UO-31 renal
[32] = test system: HCC-2998 colon
[33] = test system: 786-0 renal
[34] = test system: HCT-116 colon
[35] = test system: SW-620 colon
[36] = test system: HL-60(TB) leukemia
[37] = test system: EKVX NSCLC
[38] = test system: HOP-92 NSCLC
[39] = test system: T-47D breast
[40] = test system: SF-268 CNS
[41] = test system: MDA-N
[42] = test system: CAKI-1 renal
[43] = test system: NCI-H522 lung
[44] = test system: SNB-19 CNS
[45] = test system: U251 CNS
[46] = test system: MOLT-4 leukemia
[47] = test system: SN12C renal
[48] = test system: SK-MEL-2 melanoma
[49] = test system: NCI-H23 lung
[50] = test system: IGROV1 ovarian
[51] = test system: BT-549 breast
[52] = test system: SF-295 CNS
[53] = test system: OVCAR-3 ovarian
[54] = test system: HOP-62 NSCLC
[55] = test system: M14 melanoma
[56] = test system: NCI-H460 lung
[57] = test system: A549 NSCLC
[58] = test system: RPMI-8226 leukemia
[59] = test system: SK-MEL-5 melanoma

In the case of `CCO/C=N/C1=C(C#N)C(c2ccc(Cl)cc2)c2c(-c3ccccc3)nn(-c3ccccc3)c2O1` (centres undefined), the TGI [1] is reported as greater than 100 µM, the TGI [2] is reported as greater than 100 µM and the TGI [3] is reported as 25 µM. The TGI [4] was greater than 85.4 µM, the TGI [5] was 46.9 µM and the TGI [6] was 64.9 µM. It also gave a TGI [7] greater than 70.1 µM, a TGI [8] of 35.8 µM and a TGI [9] greater than 52.5 µM. It also gave a TGI [10] of 14.2 µM, a TGI [11] of 28.6 µM and a TGI [12] greater than 31.6 µM. It also gave a TGI [13] of 39.5 µM, a TGI [14] of 35.9 µM and a TGI [15] of 22.7 µM. For the same compound, the TGI [16] was 29.1 µM, the TGI [17] was 29.5 µM and the TGI [18] was 30 µM. The TGI [19] was greater than 100 µM, the TGI [20] was greater than 67 µM and the TGI [21] was 19.9 µM. The TGI [22] was greater than 26.2 µM, the TGI [23] was greater than 80.8 µM and the TGI [24] was greater than 64.8 µM. It also gave a TGI [25] of 18.7 µM, a TGI [26] of 48.2 µM and a TGI [27] of 33.5 µM. It also gave a TGI [28] of 31 µM, a TGI [29] greater than 100 µM and a TGI [30] greater than 28.1 µM. It also gave a TGI [31] of 31.9 µM, a TGI [32] greater than 38.9 µM and a TGI [33] of 32.2 µM. It also gave a TGI [34] greater than 47.9 µM, a TGI [35] greater than 66.5 µM and a TGI [36] greater than 100 µM. For the same compound, the TGI [37] was greater than 31.6 µM, the TGI [38] was 29.1 µM and the TGI [39] was greater than 100 µM. The TGI [40] was 29.9 µM, the TGI [41] was 45.8 µM and the TGI [42] was 36 µM. For the same compound, the TGI [43] was 18.2 µM, the TGI [44] was 24.7 µM and the TGI [45] was 16.8 µM. The TGI [46] was greater than 100 µM, the TGI [47] was greater than 100 µM and the TGI [48] was 34.8 µM. For the same compound, the TGI [49] was 24.5 µM, the TGI [50] was 45.2 µM and the TGI [51] was 31.5 µM. The TGI [52] was 32.2 µM, the TGI [53] was greater than 45.2 µM and the TGI [54] was 86.5 µM. It also gave a TGI [55] of 20.3 µM, a TGI [56] of 46 µM and a TGI [57] of 21.5 µM. It also gave a TGI [58] greater than 100 µM.

With `CCN(CC)CCOC(=O)CCN1CC2CCC(CC2)C1` the TGI [1] was greater than 100 µM, the TGI [2] was greater than 100 µM and the TGI [3] was greater than 100 µM. The TGI [4] was greater than 100 µM, the TGI [5] was greater than 100 µM and the TGI [6] was greater than 100 µM. It also gave a TGI [7] greater than 100 µM, a TGI [8] greater than 100 µM and a TGI [9] greater than 100 µM. The TGI [10] was greater than 100 µM, the TGI [11] was greater than 100 µM and the TGI [12] was greater than 100 µM. It also gave a TGI [13] greater than 100 µM, a TGI [14] greater than 100 µM and a TGI [15] greater than 100 µM. It also gave a TGI [16] greater than 100 µM, a TGI [17] greater than 100 µM and a TGI [18] greater than 100 µM. For the same compound, the TGI [19] was greater than 100 µM, the TGI [20] was greater than 100 µM and the TGI [21] was greater than 100 µM. It also gave a TGI [22] greater than 100 µM, a TGI [23] greater than 100 µM and a TGI [24] greater than 100 µM. It also gave a TGI [25] greater than 100 µM, a TGI [26] greater than 100 µM and a TGI [27] greater than 100 µM. It also gave a TGI [28] greater than 100 µM, a TGI [29] greater than 100 µM and a TGI [30] greater than 100 µM. It also gave a TGI [31] greater than 100 µM, a TGI [32] greater than 100 µM and a TGI [33] greater than 100 µM. It also gave a TGI [34] greater than 100 µM, a TGI [35] greater than 100 µM and a TGI [36] greater than 100 µM. For the same compound, the TGI [37] was greater than 100 µM, the TGI [38] was greater than 100 µM and the TGI [39] was greater than 100 µM. The TGI [41] was greater than 100 µM, the TGI [42] was greater than 100 µM and the TGI [43] was greater than 100 µM. For the same compound, the TGI [44] was greater than 100 µM, the TGI [45] was greater than 100 µM and the TGI [46] was greater than 100 µM. The TGI [48] was greater than 100 µM, the TGI [49] was greater than 100 µM and the TGI [50] was greater than 100 µM. The TGI [51] was greater than 100 µM, the TGI [52] was greater than 100 µM and the TGI [53] was greater than 100 µM. For the same compound, the TGI [59] was greater than 100 µM, the TGI [55] was greater than 100 µM and the TGI [56] was greater than 100 µM. The TGI [57] was greater than 100 µM and the TGI [58] was greater than 100 µM.

`CC(C)(C)OC(=O)NC(Cc1ccc(OCc2ccccc2)cn1)C(=O)NCc1ccccc1` (centres undefined) showed a TGI [1] of 43.5 µM, a TGI [2] of 30.8 µM and a TGI [3] of 97.9 µM. It also gave a TGI [4] of 48.7 µM, a TGI [6] greater than 100 µM and a TGI [7] greater than 100 µM. It also gave a TGI [8] of 48.1 µM, a TGI [9] of 72.8 µM and a TGI [10] greater than 100 µM. It also gave a TGI [11] greater than 100 µM, a TGI [12] greater than 100 µM and a TGI [13] greater than 100 µM. It also gave a TGI [14] of 34.5 µM, a TGI [15] of 53 µM and a TGI [16] of 78.5 µM. The TGI [17] was greater than 100 µM, the TGI [18] was 65.7 µM and the TGI [19] was greater than 100 µM. For the same compound, the TGI [20] was 75.1 µM, the TGI [21] was greater than 100 µM and the TGI [23] was 82.1 µM. For the same compound, the TGI [25] was 97.8 µM, the TGI [26] was 51.6 µM and the TGI [27] was 32.5 µM. For the same compound, the TGI [28] was 39.4 µM, the TGI [29] was 30.5 µM and the TGI [30] was greater than 100 µM. For the same compound, the TGI [31] was 82.9 µM, the TGI [32] was greater than 100 µM and the TGI [33] was greater than 100 µM. For the same compound, the TGI [34] was 83.6 µM, the TGI [35] was greater than 100 µM and the TGI [36] was 33.7 µM. For the same compound, the TGI [37] was 99.3 µM, the TGI [38] was 60.4 µM and the TGI [39] was 56.5 µM. The TGI [40] was 75 µM, the TGI [41] was 43.8 µM and the TGI [42] was greater than 100 µM. It also gave a TGI [43] of 47.1 µM, a TGI [44] greater than 100 µM and a TGI [45] greater than 100 µM. The TGI [46] was 42 µM, the TGI [47] was 64.6 µM and the TGI [48] was 35.7 µM. It also gave a TGI [49] of 47.3 µM, a TGI [50] greater than 100 µM and a TGI [51] of 48.6 µM. For the same compound, the TGI [52] was 51.6 µM, the TGI [53] was 43.2 µM and the TGI [54] was 56.1 µM. For the same compound, the TGI [59] was 26 µM, the TGI [55] was 47.8 µM and the TGI [56] was 69.7 µM. The TGI [57] was greater than 100 µM and the TGI [58] was 44.9 µM.

`COc1cc(Br)cc2nc(-c3cccs3)oc12` showed a TGI [1] greater than 100 µM, a TGI [2] greater than 100 µM and a TGI [3] greater than 100 µM. The TGI [4] was greater than 100 µM, the TGI [5] was greater than 100 µM and the TGI [6] was greater than 100 µM. It also gave a TGI [7] greater than 100 µM, a TGI [8] greater than 100 µM and a TGI [9] greater than 100 µM. The TGI [10] was greater than 77.6 µM, the TGI [11] was greater than 100 µM and the TGI [12] was greater than 100 µM. For the same compound, the TGI [13] was greater than 100 µM, the TGI [14] was greater than 100 µM and the TGI [15] was greater than 100 µM. The TGI [16] was greater than 85.9 µM, the TGI [17] was greater than 100 µM and the TGI [18] was greater than 100 µM. For the same compound, the TGI [19] was greater than 100 µM, the TGI [20] was greater than 100 µM and the TGI [21] was greater than 100 µM. It also gave a TGI [22] greater than 100 µM, a TGI [23] greater than 100 µM and a TGI [24] greater than 100 µM. It also gave a TGI [25] greater than 100 µM, a TGI [26] greater than 100 µM and a TGI [27] greater than 100 µM. For the same compound, the TGI [28] was greater than 100 µM, the TGI [29] was greater than 100 µM and the TGI [30] was greater than 68 µM. For the same compound, the TGI [31] was greater than 100 µM, the TGI [32] was greater than 100 µM and the TGI [33] was greater than 100 µM. It also gave a TGI [34] greater than 100 µM, a TGI [35] greater than 100 µM and a TGI [36] greater than 100 µM. It also gave a TGI [37] greater than 100 µM, a TGI [38] greater than 100 µM and a TGI [39] greater than 100 µM. For the same compound, the TGI [40] was greater than 100 µM, the TGI [41] was greater than 100 µM and the TGI [42] was greater than 100 µM. It also gave a TGI [43] greater than 100 µM, a TGI [44] greater than 100 µM and a TGI [45] greater than 100 µM. The TGI [46] was greater than 100 µM, the TGI [47] was greater than 100 µM and the TGI [48] was greater than 100 µM. The TGI [49] was greater than 100 µM, the TGI [50] was greater than 100 µM and the TGI [51] was greater than 100 µM. The TGI [52] was greater than 100 µM, the TGI [53] was greater than 100 µM and the TGI [54] was greater than 92.1 µM. The TGI [59] was greater than 100 µM, the TGI [55] was greater than 100 µM and the TGI [56] was greater than 100 µM. The TGI [57] was greater than 100 µM and the TGI [58] was greater than 100 µM.
